How the values were obtained:
[1] = test system: mouse melanoma cell line B16F10; assay: Tumor volume in C57BL/6 mice transplanted with melanoma cell line B16F10; assay type: in vivo; settings: Day 15
Description: On Day −2 (two days before the cancer cell transplantation), Day 0 (=day of cancer cell transplantation), Day 3, Day 5, Day 9, or Day 12, 0.2 mg of an anti-CD4 antibody (GK1.5; an antibody known to be capable of causing depletion of CD4+ cells in the mouse body by the CDC activity; manufactured by BioXcell) was intraperitoneally administered at one time. The solid tumor diameter was measured on Day 14, and the tumor volume was calculated by short diameter×short diameter×long diameter×π/6.
On Day 5, 3.125 μg, 12.5 μg, 50 μg, or 200 μg of the anti-CD4 antibody was administered (negative control group: no antibody was administered).
The solid tumor diameter in each mouse was measured, and the tumor volume was calculated (short diameter×short diameter×long diameter×π/6).
Thereafter, antibody administration was carried out as follows (Day 0=day of cancer cell transplantation).
The tumor volume was calculated (short diameter×short diameter×long diameter×π/6) from the solid tumor diameter measured on Day 18.
The tumor volume was calculated (short diameter×short diameter×long diameter×π/6) from the solid tumor diameter measured on Day 15.
The tumor volume was calculated (short diameter×short diameter×long diameter×π/6) from the solid tumor diameter measured on Day 16.

[2] = test system: CD4+ cells in human peripheral blood mononuclear cells; assay: ADCC activity assay (Promega ADCC activity assay kit, PBMCs + ADCC Bioassay Effector cells); assay type: cell-based; settings: 12,500 PBMCs, 75,000 effector cells, 37° C. 6 hours; FIG. 1
Description: Measurement of the ADCC activity of IT1208 was carried out under the following conditions, according to the protocol for an ADCC activity assay kit sold by Promega. After gently mixing 12,500 PBMCs derived from a healthy individual, anti-CD4mAb (IT1208), and 75,000 ADCC Bioassay Effector cells contained in the Promega kit, the cells were cultured in a CO2 incubator at 37° C. for 6 hours. The luminescent reagent Bio-Glo reagent was added to the culture, and culturing was then continued at room temperature for 20 minutes, followed by measuring chemiluminescence using a luminescence plate reader.

[3] = Example 7 (small molecule anticancer agents), anti-CD4 0.2 mg Day 5, 9, OXA 10, GEM 20, CPA 10 mg/kg Day 5, 9, 12, 16, FIG. 23

Row | Molecule | growth of solid tumor relative to control group [1, 3] | also measured
1 | O=c1[nH]cc(F)c(=O)[nH]1 [5-FU] | – | growth of solid tumor relative to control group ([1]; Example 4, anti-CD4 0.2 mg once Day 5, anti-CD137 0.1 mg Day 5-9, 5-FU 50 mg/kg four times, FIG. 13): 36%
2 | O=P1(N(CCCl)CCCl)NCCCO1 (stereo not shown) [CPA, Cyclophosphamide] | 75% | –
3 | Nc1ccn([C@@H]2O[C@H](CO)[C@@H](O)C2(F)F)c(=O)n1 [GEM, Gemcitabine] | 63% | –
4 | Rituximab | – | concentration at which ADCC activity began to be found [2]: ≥ 10 nM
